Like-named read-outs stand apart in the source and are kept apart here.
Experiments:
[1] = target: T1, human RNR (purified R1 and R2 subunits) (Homo sapiens, UniProt P23921+P31350); assay: In vitro measurement of human RNR inhibitory activity (conversion of CDP to dCDP, HPLC); format: biochemical; conditions: 100 μM CDP, 37° C., 30 minutes, read-out: RNR Inhibition (IC50)
T1 construct: made in house; host or cells: Escherichia coli BL21(λDE3)pLysS, plasmids pETR1 and pETR2 (pET3a backbone)
T1 sequence (P23921 1-792): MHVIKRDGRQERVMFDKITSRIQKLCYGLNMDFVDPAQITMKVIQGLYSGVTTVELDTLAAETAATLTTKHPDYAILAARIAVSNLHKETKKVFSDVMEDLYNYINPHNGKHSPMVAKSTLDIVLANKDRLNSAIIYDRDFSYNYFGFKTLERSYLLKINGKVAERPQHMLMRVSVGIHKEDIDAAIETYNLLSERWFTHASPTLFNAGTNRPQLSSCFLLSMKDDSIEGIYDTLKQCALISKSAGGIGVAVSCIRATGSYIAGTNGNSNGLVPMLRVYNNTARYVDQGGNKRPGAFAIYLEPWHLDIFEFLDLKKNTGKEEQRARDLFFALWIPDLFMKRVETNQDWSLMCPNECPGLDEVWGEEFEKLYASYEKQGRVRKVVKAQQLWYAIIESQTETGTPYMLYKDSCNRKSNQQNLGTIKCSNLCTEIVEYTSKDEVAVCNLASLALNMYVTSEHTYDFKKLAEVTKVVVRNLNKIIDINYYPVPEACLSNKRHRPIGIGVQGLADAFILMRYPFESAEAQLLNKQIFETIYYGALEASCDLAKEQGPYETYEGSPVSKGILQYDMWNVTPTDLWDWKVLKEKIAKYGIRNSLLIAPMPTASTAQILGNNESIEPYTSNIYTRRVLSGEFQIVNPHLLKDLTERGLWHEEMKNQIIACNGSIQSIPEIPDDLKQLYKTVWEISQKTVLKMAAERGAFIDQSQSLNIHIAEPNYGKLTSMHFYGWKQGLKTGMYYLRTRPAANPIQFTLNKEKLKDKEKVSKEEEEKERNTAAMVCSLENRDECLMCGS
T1 sequence (P31350 1-389): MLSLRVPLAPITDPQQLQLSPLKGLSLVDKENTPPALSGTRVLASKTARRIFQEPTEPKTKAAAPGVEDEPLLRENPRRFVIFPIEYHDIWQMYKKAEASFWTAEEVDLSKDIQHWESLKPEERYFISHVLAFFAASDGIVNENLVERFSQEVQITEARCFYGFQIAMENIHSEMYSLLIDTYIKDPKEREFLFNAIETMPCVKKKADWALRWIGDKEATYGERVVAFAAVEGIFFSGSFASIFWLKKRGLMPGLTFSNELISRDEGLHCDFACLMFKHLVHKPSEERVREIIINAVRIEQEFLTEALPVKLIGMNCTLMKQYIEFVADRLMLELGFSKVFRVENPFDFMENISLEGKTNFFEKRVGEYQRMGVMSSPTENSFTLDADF

HeLa S3 cells = assay: Test for growth inhibition of HeLa S3 cells; format: cell-based; conditions: HeLa S3 cells, 72 hours with test compound, Cell Proliferation Kit II, read-out: Cell growth inhibition (IC50)
Method: Test for Growth Inhibition of Hela S3 Cells
HeLa S3 cells prepared at 1×10^4 cells/ml in MEM culture medium containing 10% fetal bovine serum and 2 mM glutamine were added to each well of a 96-well microtiter plate (0.1 ml for each well). The cells were cultured at 37° C. in a CO2 incubator for 24 hours, and then 0.05 ml of test compound appropriately diluted with the above medium was added to each well, and then the mixture was cultured at 37° C. in a CO2 incubator for 72 hours. After the culture supernatant was removed, each well was washed with 0.1 ml of PBS buffer twice, and 0.1 ml of the aforementioned medium was added to each well again.
Cell Proliferation Kit II (Boehringer Mennheim) was used for measurement of cell number in each well. After a coloring reaction reagent was added, the plate was warmed to 37° C. in a CO2 incubator for 3 hours. Then, absorbances at 490 nm and 655 nm were measured by a microplate reader, and a value (difference of absorbance) was calculated for each well by subtracting the absorbance at […] from the absorbance at 490 nm. By comparing the differences of absorbance for cells without treatment and cells treated with a test compound at a known concentration, a concentration of test compound which inhibited the cell growth by 50% was calculated, and the value obtained was determined as IC50. The values of RNR inhibitory activity obtained in Example 8, and the values of cell growth inhibitory activity obtained in Example 9 are shown in the following tables (the compound numbers used in the tables correspond to the compound numbers shown in the aforementioned tables).

IC50 [1] [nM] | IC50 (HeLa S3 cells; Homo sapiens, HeLa S3, 72 h) [µM] | IC50 (HeLa S3 cells) [µM] | Compound
4260 | 5.15 |  | Oc1ccc(SCc2cccc(CSc3ccc(O)cc3)n2)cc1 [Compound 1]
4820 | > 101 |  | O=C1N(CS(=O)(=O)CCSc2ccc(O)cc2)CCCN1CS(=O)(=O)CCSc1ccc(O)cc1 [Compound 7]
3640 | 5.64 |  | Oc1ccc(SCCNCCSc2ccc(O)cc2)cc1 [Compound 45]
5450 | 16 |  | N=C(N)N(CCSc1ccc(O)cc1)CCSc1ccc(O)cc1 [Compound 49]
4380 | 6.5 |  | O=C(CCSc1ccc(O)cc1)N(CCSc1ccc(O)cc1)CCSc1ccc(O)cc1 [Compound 52]
1050 | 1.71 |  | O=CN(CCSc1ccc(O)cc1)CCSc1ccc(O)cc1 [Compound 53]
480 | 4.63 |  | CC(=O)N(CCSc1ccc(O)cc1)CCSc1ccc(O)cc1 [Compound 54]
730 | 14.4 |  | O=C(N(CCSc1ccc(O)cc1)CCSc1ccc(O)cc1)N1CCCc2ccccc21 [Compound 57]
4760 | 18.6 |  | CC1CCc2ccccc2N1C(=O)N(CCSc1ccc(O)cc1)CCSc1ccc(O)cc1 (stereo not drawn) [Compound 58]
5730 | 5.81 |  | NCCN(CCSc1ccc(O)cc1)CCSc1ccc(O)cc1 [Compound 59]
1230 | 3.94 |  | CCN(CCSc1ccc(O)cc1)CCSc1ccc(O)cc1 [Compound 71]
600 | 1.61 |  | C#CCN(CCSc1ccc(O)cc1)CCSc1ccc(O)cc1 [Compound 73]
820 | 2 |  | C=CCN(CCSc1ccc(O)cc1)CCSc1ccc(O)cc1 [Compound 74]
1660 | 3.56 |  | Oc1ccc(SCCN(CCSc2ccc(O)cc2)CC2CC2)cc1 [Compound 75]
740 | 1.43 |  | CCN(CC)C(=O)CCN(CCSc1ccc(O)cc1)CCSc1ccc(O)cc1 [Compound 80]
290 | 1.23 |  | CC(=O)CN(CCSc1ccc(O)cc1)CCSc1ccc(O)cc1 [Compound 81]
1420 | 1.3 |  | NC(=O)NCCN(CCSc1ccc(O)cc1)CCSc1ccc(O)cc1 [Compound 82]
2950 | 5.17 |  | CC(=O)NCCN(CCSc1ccc(O)cc1)CCSc1ccc(O)cc1 [Compound 83]
3140 | 3.78 |  | O=C1CCC(=O)N1CCN(CCSc1ccc(O)cc1)CCSc1ccc(O)cc1 [Compound 86]
1010 | 2.57 |  | CSCCN(CCSc1ccc(O)cc1)CCSc1ccc(O)cc1 [Compound 87]
1790 | 3.22 |  | Oc1ccc(SCCN(CCSc2ccc(O)cc2)CC2OCCO2)cc1 [Compound 88]
1460 | 4.66 |  | Oc1ccc(SCCN(CCSc2ccc(O)cc2)Cc2cccs2)cc1 [Compound 89]
2030 | 6.38 |  | Oc1ccc(SCCN(CCSc2ccc(O)cc2)Cc2ccco2)cc1 [Compound 90]
890 | 2.14 |  | Oc1ccc(SCCN(CCSc2ccc(O)cc2)Cc2ccccc2O)cc1 [Compound 92]
630 | 9.04 |  | Oc1ccc(SCCN(CCSc2ccc(O)cc2)Cc2cccc(O)c2)cc1 [Compound 93]
880 | 3.56 |  | OCCCN(CCSc1ccc(O)cc1)CCSc1ccc(O)cc1 [Compound 95]
3360 | 15 |  | Oc1ccc(SCCN(CCSc2ccc(O)cc2)Cc2ccccc2)cc1 [Compound 98]
2790 | 5.8 |  | Oc1ccc(SCCN(CCSc2ccc(O)cc2)Cc2cccnc2)cc1 [Compound 99]

IC50 [1] [nM] | IC50 (HeLa S3 cells; Homo sapiens, HeLa S3, 72 h) [µM] | IC50 (HeLa S3 cells) [µM] | Compound
5050 | 12.9 |  | Oc1ccc(SCCN(CCSc2ccc(O)cc2)Cc2ccc3ccccc3n2)cc1 [Compound 101]
2110 | 1.74 |  | COCCN(CCSc1ccc(O)cc1)CCSc1ccc(O)cc1 [Compound 104]
3990 | 9.07 |  | Oc1ccc(SCCN(CCSc2ccc(O)cc2)Cc2ccccc2F)cc1 [Compound 105]
4640 | 6.77 |  | Oc1ccc(SCCN(CCSc2ccc(O)cc2)Cc2ccc(F)cc2)cc1 [Compound 106]
4200 | 24.9 |  | O=C(CCN(CCSc1ccc(O)cc1)CCSc1ccc(O)cc1)N1CCOCC1 [Compound 107]
640 | 2.64 |  | O=C(CCN(CCSc1ccc(O)cc1)CCSc1ccc(O)cc1)N1CCCCC1 [Compound 108]
2360 | 38.9 |  | CCN(CC)CCN(CCSc1ccc(O)cc1)CCSc1ccc(O)cc1 [Compound 109]
1850 | 11.4 |  | Oc1ccc(SCCN(CCSc2ccc(O)cc2)CCN2CCCCC2)cc1 [Compound 111]
4770 | 3.8 |  | CCC(=O)N(CCSc1ccc(O)cc1)CCSc1ccc(O)cc1 [Compound 113]
3440 | 2.74 |  | O=C(c1ccccc1)N(CCSc1ccc(O)cc1)CCSc1ccc(O)cc1 [Compound 114]
4140 | 6.14 |  | O=C(c1ccccn1)N(CCSc1ccc(O)cc1)CCSc1ccc(O)cc1 [Compound 115]
4130 | 3.02 |  | O=C(c1cccnc1)N(CCSc1ccc(O)cc1)CCSc1ccc(O)cc1 [Compound 116]
1690 | 2.72 |  | O=C(c1ccncc1)N(CCSc1ccc(O)cc1)CCSc1ccc(O)cc1 [Compound 117]
6870 | 7.78 |  | CS(=O)(=O)N(CCSc1ccc(O)cc1)CCSc1ccc(O)cc1 [Compound 118]
90 | 3.68 |  | O=C(N1CCOCC1)N(CCSc1ccc(O)cc1)CCSc1ccc(O)cc1 [Compound 124]
910 | 4.55 |  | O=C(N1CCCCC1)N(CCSc1ccc(O)cc1)CCSc1ccc(O)cc1 [Compound 125]
6590 | 128 |  | Oc1ccc(SSc2ccc(O)cc2)cc1 [Compound 131]
3500 | 45.6 |  | Oc1ccc(SCSc2ccc(O)cc2)cc1 [Compound 132]
2270 | 14.5 |  | Oc1ccc(SCCSc2ccc(O)cc2)cc1 [Compound 133]
680 | 2.05 |  | Oc1ccc(SCCCSc2ccc(O)cc2)cc1 [Compound 134]
430 | 6.02 |  | Oc1ccc(SCCCCSc2ccc(O)cc2)cc1 [Compound 135]
690 | 9.14 |  | Oc1ccc(SCCCCCSc2ccc(O)cc2)cc1 [Compound 136]
870 | 5.45 |  | Oc1ccc(SCCCCCCSc2ccc(O)cc2)cc1 [Compound 137]
2290 | 18.3 |  | Oc1ccc(SCCCCCCCSc2ccc(O)cc2)cc1 [Compound 138]
5140 | 18 |  | CC(CSc1ccc(O)cc1)Sc1ccc(O)cc1 (stereo not drawn) [Compound 152]
 |  | 0.4 | NC(=O)CN(CCSc1ccc(O)cc1)CCSc1ccc(O)cc1 [Compound 224]
 |  | 0.55 | NC(=O)CN(CCSc1ccc(O)cc1)CCSc1ccc(O)cc1 [Compound 225]

Source: patent US6608061B2, “Bisaryl compound and medicament for cancer treatment comprising the same” (Kyoma Hakko Kogyo Co., Ltd., priority 1997, dated 2003)
